Legend:
cocklebur = assay: Test B pre/postemergence cocklebur; format: in vivo, Xanthium strumarium
Method in brief: (§1)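 Response is a visual 0-to-10 score relative to untreated plants, where 0 means no effect and 10 means complete control, taken twelve to sixteen days after application. Treatments went onto soil at planting and onto foliage of 1- to 4-leaf plants, using a surfactant-containing non-phytotoxic solvent.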

crabgrass = assay: Test B pre/postemergence crabgrass; format: in vivo, Digitaria sanguinalis
Method in brief: as §1

wild oat = assay: Test B pre/postemergence wild oat; format: in vivo, Avena fatua
Method in brief: as §1

wheat = assay: Test B pre/postemergence wheat; format: in vivo, Triticum aestivum
Method in brief: as §1

[1] = Postemergence, Rate 125 g/ha, scale 0 to 10, 0 is no effect, 10 is complete control
[2] = Preemergence, Rate 62 g/ha, scale 0 to 10 (0 no effect, 10 complete control)
[3] = Preemergence, Rate 250 g/ha, scale of 0 to 10 where 0 is no effect and 10 is complete control
[4] = Preemergence, Rate 500 g/ha, scale of 0 to 10 where 0 is no effect and 10 is complete control
[5] = Rate 62 g/ha, Postemergence, scale of 0 to 10 where 0 is no effect and 10 is complete control
[6] = Rate 500 g/ha, Postemergence, scale 0 to 10, 0 no effect, 10 complete control
[7] = Postemergence, Rate 250 g/ha, scale 0 to 10, 0 is no effect, 10 is complete control
[8] = Postemergence, Rate 250 g/ha, scale 0 to 10
[9] = Postemergence, Rate 500 g/ha, scale of 0 to 10 where 0 is no effect and 10 is complete control
[10] = Preemergence, Rate 125 g/ha, scale of 0 to 10 where 0 is no effect and 10 is complete control
[11] = Preemergence, Rate 250 g/ha, scale 0 to 10, 0 is no effect, 10 is complete control
[12] = Preemergence, Rate 500 g/ha, scale 0 to 10, 0 is no effect, 10 is complete control
[13] = Rate 125 g/ha, Postemergence, scale 0 to 10, 0 is no effect, 10 is complete control
[14] = Preemergence, Rate 62 g/ha, scale of 0 to 10 where 0 is no effect and 10 is complete control
[15] = Rate 62 g/ha, Postemergence, scale 0 to 10 (0 no effect, 10 complete control)

## CC(C)N(C(=O)n1oc(=O)n(C2CCC2)c1=O)c1ccccc1 [Compound 348]
cocklebur; [1]
  Plant response rating, Cocklebur: 0
cocklebur; [2]
  Plant response rating, Cocklebur: 0
cocklebur; Preemergence, Rate 125 g/ha
  Cocklebur plant response rating (0 to 10 scale): 0
cocklebur; [3]
  Cocklebur plant response rating: 0
cocklebur; [4]
  Cocklebur plant response rating: 0
cocklebur; [5]
  Cocklebur plant response rating: 0
cocklebur; [6]
  Plant response rating, Cocklebur: 2
crabgrass; [1]
  Plant response rating, Crabgrass: 2
crabgrass; [2]
  Plant response rating, Crabgrass: 7
crabgrass; Preemergence, Rate 125 g/ha
  Crabgrass plant response rating (0 to 10 scale): 7
crabgrass; [3]
  Crabgrass plant response rating: 10
crabgrass; [4]
  Crabgrass plant response rating: 10
crabgrass; [5]
  Crabgrass plant response rating: 1
crabgrass; [6]
  Plant response rating, Crabgrass: 6
Wild oat; [1]
  Plant response rating, Wild oats: 3
Wild oat; [2]
  Plant response rating, Wild oats: 3
Wild oat; Preemergence, Rate 125 g/ha
  Wild oats plant response rating (0 to 10 scale): 4
Wild oat; [3]
  Wild oats plant response rating: 8
Wild oat; [4]
  Wild oats plant response rating: 10
Wild oat; [5]
  Wild oats plant response rating: 2
Wild oat; [6]
  Plant response rating, Wild oats: 7
wheat; [1]
  Plant response rating, Wheat: 3
wheat; [2]
  Plant response rating, Wheat: 0
wheat; Preemergence, Rate 125 g/ha
  Wheat plant response rating (0 to 10 scale): 0
wheat; [3]
  Wheat plant response rating: 0
wheat; [4]
  Wheat plant response rating: 0
wheat; [5]
  Wheat plant response rating: 2
wheat; [6]
  Plant response rating, Wheat: 4

## CC(C)N(C(=O)n1oc(=O)n(C2CCC2)c1=O)c1ccc(Cl)cc1 [Compound 349]
cocklebur; [1]
  Plant response rating, Cocklebur: 0
cocklebur; [2]
  Plant response rating, Cocklebur: 0
cocklebur; Preemergence, Rate 125 g/ha
  Cocklebur plant response rating (0 to 10 scale): 0
cocklebur; [4]
  Cocklebur plant response rating: 0
cocklebur; [5]
  Cocklebur plant response rating: 0
cocklebur; [6]
  Plant response rating, Cocklebur: 1
crabgrass; [1]
  Plant response rating, Crabgrass: 0
crabgrass; [2]
  Plant response rating, Crabgrass: 3
crabgrass; Preemergence, Rate 125 g/ha
  Crabgrass plant response rating (0 to 10 scale): 6
crabgrass; [3]
  Crabgrass plant response rating: 8
crabgrass; [4]
  Crabgrass plant response rating: 9
crabgrass; [5]
  Crabgrass plant response rating: 0
crabgrass; [6]
  Plant response rating, Crabgrass: 3
Wild oat; [1]
  Plant response rating, Wild oats: 0
Wild oat; [2]
  Plant response rating, Wild oats: 0
Wild oat; Preemergence, Rate 125 g/ha
  Wild oats plant response rating (0 to 10 scale): 0
Wild oat; [3]
  Wild oats plant response rating: 3
Wild oat; [4]
  Wild oats plant response rating: 9
Wild oat; [5]
  Wild oats plant response rating: 0
Wild oat; [6]
  Plant response rating, Wild oats: 3
wheat; [1]
  Plant response rating, Wheat: 0
wheat; [2]
  Plant response rating, Wheat: 0
wheat; Preemergence, Rate 125 g/ha
  Wheat plant response rating (0 to 10 scale): 0
wheat; [3]
  Wheat plant response rating: 0
wheat; [4]
  Wheat plant response rating: 0
wheat; [5]
  Wheat plant response rating: 0
wheat; [6]
  Plant response rating, Wheat: 3

## Cc1nsc(Cl)c1Cn1c(=O)on(C(=O)N(c2ccc(F)cc2)C(C)C)c1=O [Compound 373]
cocklebur; [1]
  Plant response rating, Cocklebur: 1
cocklebur; [7]
  Plant response rating, Cocklebur: 2
cocklebur; [2]
  Plant response rating, Cocklebur: 0
cocklebur; Preemergence, Rate 125 g/ha
  Cocklebur plant response rating (0 to 10 scale): 0
cocklebur; [3]
  Cocklebur plant response rating: 0
cocklebur; [4]
  Cocklebur plant response rating: 0
cocklebur; [5]
  Cocklebur plant response rating: 0
cocklebur; [6]
  Plant response rating, Cocklebur: 2
crabgrass; [1]
  Plant response rating, Crabgrass: 0
crabgrass; [7]
  Plant response rating, Crabgrass: 1
crabgrass; [2]
  Plant response rating, Crabgrass: 4
crabgrass; Preemergence, Rate 125 g/ha
  Crabgrass plant response rating (0 to 10 scale): 7
crabgrass; [3]
  Crabgrass plant response rating: 10
crabgrass; [4]
  Crabgrass plant response rating: 10
crabgrass; [5]
  Crabgrass plant response rating: 0
crabgrass; [6]
  Plant response rating, Crabgrass: 2
Wild oat; [1]
  Plant response rating, Wild oats: 0
Wild oat; [7]
  Plant response rating, Wild oats: 0
Wild oat; [2]
  Plant response rating, Wild oats: 0
Wild oat; Preemergence, Rate 125 g/ha
  Wild oats plant response rating (0 to 10 scale): 0
Wild oat; [3]
  Wild oats plant response rating: 0
Wild oat; [4]
  Wild oats plant response rating: 0
Wild oat; [5]
  Wild oats plant response rating: 0
Wild oat; [6]
  Plant response rating, Wild oats: 0
wheat; [1]
  Plant response rating, Wheat: 0
wheat; [7]
  Plant response rating, Wheat: 0
wheat; [2]
  Plant response rating, Wheat: 0
wheat; Preemergence, Rate 125 g/ha
  Wheat plant response rating (0 to 10 scale): 0
wheat; [3]
  Wheat plant response rating: 0
wheat; [4]
  Wheat plant response rating: 0
wheat; [5]
  Wheat plant response rating: 0
wheat; [6]
  Plant response rating, Wheat: 0

## C=CC[Si](C)(C)Cn1c(=O)on(C(=O)N(c2ccc(F)cc2)C(C)C)c1=O [Compound 426]
cocklebur; [8]
  Cocklebur plant response rating: 0
cocklebur; [9]
  Cocklebur plant response rating: 0
cocklebur; [2]
  Plant response rating, Cocklebur: 0
cocklebur; [10]
  Plant response rating, Cocklebur: 0
cocklebur; [11]
  Cocklebur plant response rating: 0
cocklebur; [12]
  Cocklebur plant response rating: 0
cocklebur; [5]
  Cocklebur plant response rating: 0
cocklebur; [13]
  Cocklebur plant response rating: 0
crabgrass; [8]
  Crabgrass plant response rating: 9
crabgrass; [9]
  Crabgrass plant response rating: 9
crabgrass; [2]
  Plant response rating, Crabgrass: 8
crabgrass; [10]
  Plant response rating, Crabgrass: 9
crabgrass; [11]
  Crabgrass plant response rating: 10
crabgrass; [12]
  Crabgrass plant response rating: 10
crabgrass; [5]
  Crabgrass plant response rating: 1
crabgrass; [13]
  Crabgrass plant response rating: 6
Wild oat; [8]
  Wild oats plant response rating: 2
Wild oat; [9]
  Wild oats plant response rating: 2
Wild oat; [2]
  Plant response rating, Wild oats: 2
Wild oat; [10]
  Plant response rating, Wild oats: 7
Wild oat; [11]
  Wild oats plant response rating: 8
Wild oat; [12]
  Wild oats plant response rating: 10
Wild oat; [13]
  Wild oats plant response rating: 0
wheat; [8]
  Wheat plant response rating: 0
wheat; [9]
  Wheat plant response rating: 2
wheat; [2]
  Plant response rating, Wheat: 0
wheat; [10]
  Plant response rating, Wheat: 0
wheat; [11]
  Wheat plant response rating: 2
wheat; [12]
  Wheat plant response rating: 6
wheat; [13]
  Wheat plant response rating: 0

## CC(C)N(C(=O)n1oc(=O)n(CNC(=O)c2ccccc2)c1=O)c1ccc(F)cc1 [Compound 445]
cocklebur; [8]
  Cocklebur plant response rating: 2
cocklebur; [9]
  Cocklebur plant response rating: 2
cocklebur; [14]
  Plant response rating, Cocklebur: 0
cocklebur; [10]
  Plant response rating, Cocklebur: 0
cocklebur; [11]
  Cocklebur plant response rating: 0
cocklebur; [15]
  Cocklebur plant response rating: 0
cocklebur; [13]
  Cocklebur plant response rating: 2
crabgrass; [8]
  Crabgrass plant response rating: 3
crabgrass; [9]
  Crabgrass plant response rating: 7
crabgrass; [14]
  Plant response rating, Crabgrass: 0
crabgrass; [10]
  Plant response rating, Crabgrass: 2
crabgrass; [11]
  Crabgrass plant response rating: 3
crabgrass; [12]
  Crabgrass plant response rating: 9
crabgrass; [15]
  Crabgrass plant response rating: 0
crabgrass; [13]
  Crabgrass plant response rating: 1
Wild oat; [8]
  Wild oats plant response rating: 0
Wild oat; [9]
  Wild oats plant response rating: 0
Wild oat; [14]
  Plant response rating, Wild oats: 0
Wild oat; [10]
  Plant response rating, Wild oats: 0
Wild oat; [11]
  Wild oats plant response rating: 0
Wild oat; [12]
  Wild oats plant response rating: 0
Wild oat; [15]
  Wild oats plant response rating: 0
Wild oat; [13]
  Wild oats plant response rating: 0
wheat; [8]
  Wheat plant response rating: 0
wheat; [9]
  Wheat plant response rating: 0
wheat; [14]
  Plant response rating, Wheat: 0
wheat; [10]
  Plant response rating, Wheat: 0
wheat; [11]
  Wheat plant response rating: 0
wheat; [12]
  Wheat plant response rating: 0
wheat; [15]
  Wheat plant response rating: 0
wheat; [13]
  Wheat plant response rating: 0

## COCC(OC)n1c(=O)on(C(=O)N(c2ccc(F)cc2)C(C)C)c1=O (stereo not drawn) [Compound 446]
cocklebur; [8]
  Cocklebur plant response rating: 0
cocklebur; [9]
  Cocklebur plant response rating: 0
cocklebur; [14]
  Plant response rating, Cocklebur: 0
cocklebur; [10]
  Plant response rating, Cocklebur: 0
cocklebur; [11]
  Cocklebur plant response rating: 0
cocklebur; [12]
  Cocklebur plant response rating: 0
cocklebur; [15]
  Cocklebur plant response rating: 0
cocklebur; [13]
  Cocklebur plant response rating: 0
crabgrass; [8]
  Crabgrass plant response rating: 9
crabgrass; [9]
  Crabgrass plant response rating: 9
crabgrass; [14]
  Plant response rating, Crabgrass: 8
crabgrass; [10]
  Plant response rating, Crabgrass: 8
crabgrass; [11]
  Crabgrass plant response rating: 9
crabgrass; [12]
  Crabgrass plant response rating: 9
crabgrass; [15]
  Crabgrass plant response rating: 5
crabgrass; [13]
  Crabgrass plant response rating: 9
Wild oat; [8]
  Wild oats plant response rating: 3
Wild oat; [9]
  Wild oats plant response rating: 3
Wild oat; [14]
  Plant response rating, Wild oats: 0
Wild oat; [10]
  Plant response rating, Wild oats: 5
Wild oat; [11]
  Wild oats plant response rating: 8
Wild oat; [12]
  Wild oats plant response rating: 10
Wild oat; [15]
  Wild oats plant response rating: 0
Wild oat; [13]
  Wild oats plant response rating: 0
wheat; [8]
  Wheat plant response rating: 3
wheat; [9]
  Wheat plant response rating: 3
wheat; [14]
  Plant response rating, Wheat: 0
wheat; [10]
  Plant response rating, Wheat: 2
wheat; [11]
  Wheat plant response rating: 3
wheat; [12]
  Wheat plant response rating: 7
wheat; [15]
  Wheat plant response rating: 0
wheat; [13]
  Wheat plant response rating: 0
